Assay results: patent publication US20030130297A1, “Oral administration of 6-hydroxy-oxymorphone for use as an analgesic” (Endo Pharmaceuticals, Inc., priority 2001, published 2003)

Experiments:
[1] = biological target: Opiate, Kappa (Human Recombinant (Homo sapiens, UniProt P41145)); assay: Opiate Kappa receptor binding assay
[2] = Pharmacokinetic studies: blood plasma levels and pain relief over 12 hours after administration of oxymorphone; assay type: in vivo; conditions: for Time at which blood plasma levels peak: after administration of oxymorphone
Procedure: In two separate studies, blood plasma levels and indications of pain relief were recorded over a 12 hour period after.
After this time, oxymorphone levels again drop and eventually fall to levels near the earlier plateau.
After the initial peak, however, a more or less steady decline in the 6-hydroxy oxymorphones plasma levels is observed.
The amount administered will be dependent upon normal criteria such as patient weight, intensity of pain, and other factors. Based on the pharmacokinetic studies, blood plasma levels around at least 0.2 ng/mL will provide some analgesia. The upper plasma level limit will be ultimately established by safety concerns. […] Subsequent doses may be required to maintain these blood levels.

[3] = test system: Opiate, Delta 1; assay: Opiate Delta 1 receptor binding assay
[4] = biological target: Opiate, Mu (Human Recombinant) (Homo sapiens, UniProt P35372); assay: Opiate Mu receptor binding assay
Opiate, Mu (Human Recombinant), sequence (P35372 whole entry): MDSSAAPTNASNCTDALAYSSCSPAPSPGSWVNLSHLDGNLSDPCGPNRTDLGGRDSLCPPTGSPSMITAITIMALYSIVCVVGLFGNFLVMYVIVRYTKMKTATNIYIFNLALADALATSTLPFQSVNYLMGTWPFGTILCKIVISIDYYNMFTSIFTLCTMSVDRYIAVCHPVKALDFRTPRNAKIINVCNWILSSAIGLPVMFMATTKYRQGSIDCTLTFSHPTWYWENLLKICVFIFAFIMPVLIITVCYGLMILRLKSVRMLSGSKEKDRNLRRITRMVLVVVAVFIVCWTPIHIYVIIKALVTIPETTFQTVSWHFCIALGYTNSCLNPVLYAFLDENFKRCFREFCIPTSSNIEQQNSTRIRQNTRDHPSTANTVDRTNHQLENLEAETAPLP

[5] = biological target: Opiate, Delta 2 (Human Recombinant) (Homo sapiens, UniProt P41143); assay: Opiate Delta 2 receptor binding assay
Opiate, Delta 2 (Human Recombinant), sequence (P41143 whole entry): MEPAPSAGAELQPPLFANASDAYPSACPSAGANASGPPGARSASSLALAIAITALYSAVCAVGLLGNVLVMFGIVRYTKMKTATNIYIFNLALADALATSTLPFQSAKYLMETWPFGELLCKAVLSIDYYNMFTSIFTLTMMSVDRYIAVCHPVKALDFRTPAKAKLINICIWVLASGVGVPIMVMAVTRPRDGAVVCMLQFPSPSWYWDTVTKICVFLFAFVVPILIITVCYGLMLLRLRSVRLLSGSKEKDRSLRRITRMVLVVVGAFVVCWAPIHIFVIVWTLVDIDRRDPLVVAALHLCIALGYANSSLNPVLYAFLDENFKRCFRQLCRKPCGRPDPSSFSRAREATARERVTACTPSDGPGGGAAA

Opiate, Kappa (Human Recombinant, sequence (P41145 whole entry): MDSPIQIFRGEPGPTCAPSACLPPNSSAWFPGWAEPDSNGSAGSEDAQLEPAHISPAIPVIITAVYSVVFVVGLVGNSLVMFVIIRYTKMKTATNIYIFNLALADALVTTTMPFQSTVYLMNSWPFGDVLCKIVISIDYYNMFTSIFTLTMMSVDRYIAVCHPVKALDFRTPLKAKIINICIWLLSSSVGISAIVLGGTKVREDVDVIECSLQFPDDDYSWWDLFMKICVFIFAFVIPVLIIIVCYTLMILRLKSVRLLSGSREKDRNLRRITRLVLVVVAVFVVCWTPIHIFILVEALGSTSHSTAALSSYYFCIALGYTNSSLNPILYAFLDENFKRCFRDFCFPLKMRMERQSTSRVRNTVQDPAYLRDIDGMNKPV

| Compound | Assay report, binding, Opiate Kappa ([1]; 10 nm (1.0 E−8)) | Assay report, binding, Opiate Kappa ([1]; 10 μm (1.0 E−5)) | Time at which blood plasma levels peak [2] | Blood plasma level that provides some analgesia ([2]; based on the pharmacokinetic studies) | Assay report, binding, Opiate Delta 1 ([3]; 10 nm (1.0 E−8)) | Assay report, binding, Opiate Delta 1 ([3]; 10 μm (1.0 E−5)) | Assay report, binding, Opiate Mu ([4]; 10 nm (1.0 E−8)) | Assay report, binding, Opiate Mu ([4]; 10 μm (1.0 E−5)) | Assay report, binding, Opiate Delta 2 ([5]; 10 nm (1.0 E−8)) | Assay report, binding, Opiate Delta 2 ([5]; 10 μm (1.0 E−5)) | Time at which the blood plasma level spikes again ([2]; from administration of oxymorphone) |
| --- | --- | --- | --- | --- | --- | --- | --- | --- | --- | --- | --- |
| CN1CC[C@]23c4c5ccc(O)c4O[C@H]2C(O)CC[C@@]3(O)[C@H]1C5 (some centres unmarked) [6-HYDROXY OXYMORPHONE, 6-hydroxy oxymorphone] | 2.45% | 62.47% | ≤ 2 h | at least 0.2 ng/mL | −4.12% | 90.48% | 63.16% | 99.91% | 7.19% | 55.45% |  |
| CN1CC[C@]23c4c5ccc(O)c4O[C@H]2C(=O)CC[C@@]3(O)[C@H]1C5 [OXYMORPHONE, oxymorphone] |  |  | ≤ 2 h |  | −18.26% | 89.03% |  |  |  |  | 4 to 6 h |
